Our source for the IC50 values is ChEMBL document CHEMBL5360618, “PepScaf: Harnessing Machine Learning with In Vitro Selection toward De Novo Macrocyclic Peptides against IL-17C/IL-17RE Interaction” (J Med Chem, 2023).

Positions of bridges follow the written chain, without caps; N, C: chain ends. Residues, ends and D or L forms follow the SMILES beside them. A value given as a limit tells only on which side of the number the result lay.

This assay concerns the target T1, IL17-RE-IL-17C (Homo sapiens, UniProt Q8NFR9+Q9P0M4).
T1 sequence (Q9P0M4 whole entry): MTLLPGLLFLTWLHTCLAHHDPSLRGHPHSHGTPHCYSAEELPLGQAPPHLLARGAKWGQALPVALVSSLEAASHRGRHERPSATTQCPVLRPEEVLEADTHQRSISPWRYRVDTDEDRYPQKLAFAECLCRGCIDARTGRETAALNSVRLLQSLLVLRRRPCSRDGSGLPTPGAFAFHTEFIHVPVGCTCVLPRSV
T1 sequence (Q8NFR9 whole entry): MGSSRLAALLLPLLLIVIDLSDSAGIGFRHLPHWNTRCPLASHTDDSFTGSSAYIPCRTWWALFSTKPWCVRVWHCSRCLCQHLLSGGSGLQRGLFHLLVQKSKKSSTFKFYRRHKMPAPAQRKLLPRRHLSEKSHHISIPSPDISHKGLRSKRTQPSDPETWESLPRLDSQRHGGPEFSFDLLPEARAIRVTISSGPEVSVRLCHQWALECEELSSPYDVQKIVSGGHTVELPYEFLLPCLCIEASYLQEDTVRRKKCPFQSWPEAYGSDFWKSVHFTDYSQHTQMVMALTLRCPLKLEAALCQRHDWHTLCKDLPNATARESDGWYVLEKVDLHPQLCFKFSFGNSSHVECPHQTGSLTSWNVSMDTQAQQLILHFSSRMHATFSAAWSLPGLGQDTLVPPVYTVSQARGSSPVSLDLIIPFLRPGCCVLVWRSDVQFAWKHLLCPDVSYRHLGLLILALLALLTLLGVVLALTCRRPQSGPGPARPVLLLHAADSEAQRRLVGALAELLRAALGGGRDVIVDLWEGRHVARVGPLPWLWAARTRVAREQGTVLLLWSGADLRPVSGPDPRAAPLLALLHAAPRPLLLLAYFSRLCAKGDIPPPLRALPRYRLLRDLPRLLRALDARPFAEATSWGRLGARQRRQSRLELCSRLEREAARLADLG
The assay can be described thus: Inhibition of IL-17C/IL-17RE interaction (unknown origin) incubated for 1.5 hrs by ELISA method. It counts as protein-complex assay. Background: In an ELISA, binding on a coated surface is turned into a signal by an enzyme label.
For the compound `CC[C@H](C)[C@@H]1NC(=O)[C@H](Cc2c[nH]cn2)NC(=O)[C@H](Cc2ccc(O)cc2)NC(=O)CSC[C@@H](C(=O)NCC(N)=O)NC(=O)CNC(=O)[C@H](CC(C)C)NC(=O)[C@H](CC(N)=O)NC(=O)CNC(=O)[C@H](Cc2ccc(O)cc2)NC(=O)[C@H](CC(C)C)NC(=O)[C@H](CO)NC(=O)[C@H](C)NC(=O)[C@H](Cc2ccc(O)cc2)NC(=O)[C@H](Cc2ccc(O)cc2)NC1=O` ({CH2CO}-YHIYYASLYGNLGCG-NH2; thioether N-14), half-maximal inhibition (IC50) was put at 4.4 nM.

Compound `CC[C@H](C)[C@@H]1NC(=O)[C@H](Cc2c[nH]cn2)NC(=O)[C@H](Cc2ccc(O)cc2)NC(=O)CSC[C@@H](C(=O)NCC(N)=O)NC(=O)CNC(=O)[C@H](CC(C)C)NC(=O)[C@H](Cc2c[nH]cn2)NC(=O)CNC(=O)[C@H](Cc2ccc(O)cc2)NC(=O)[C@H](CC(C)C)NC(=O)[C@H](CO)NC(=O)[C@H](Cc2ccccc2)NC(=O)[C@H](Cc2ccc(O)cc2)NC(=O)[C@H](Cc2ccc(O)cc2)NC1=O` ({CH2CO}-YHIYYFSLYGHLGCG-NH2; thioether N-14) had an IC50 of 6.2 nM. `CC[C@H](C)[C@@H]1NC(=O)[C@H](Cc2c[nH]cn2)NC(=O)[C@H](Cc2ccc(O)cc2)NC(=O)CSC[C@@H](C(=O)NCC(N)=O)NC(=O)CNC(=O)[C@H](CC(C)C)NC(=O)[C@H](CCCNC(=N)N)NC(=O)CNC(=O)[C@H](Cc2ccc(O)cc2)NC(=O)[C@H](CC(C)C)NC(=O)[C@H](CO)NC(=O)[C@H](Cc2ccccc2)NC(=O)[C@H](Cc2ccc(O)cc2)NC(=O)[C@H](Cc2ccc(O)cc2)NC1=O` ({CH2CO}-YHIYYFSLYGRLGCG-NH2; thioether N-14) had an IC50 of 3 nM.

The compound `CC[C@H](C)[C@@H]1NC(=O)[C@H](Cc2c[nH]cn2)NC(=O)[C@H](Cc2ccc(O)cc2)NC(=O)CSC[C@@H](C(=O)NCC(N)=O)NC(=O)CNC(=O)[C@H](CC(C)C)NC(=O)[C@H](CC(N)=O)NC(=O)CNC(=O)[C@H](Cc2ccc(O)cc2)NC(=O)[C@H](CC(C)C)NC(=O)[C@H]([C@@H](C)CC)NC(=O)[C@H](CCCNC(=N)N)NC(=O)[C@H](Cc2ccc(O)cc2)NC(=O)[C@H](Cc2ccc(O)cc2)NC1=O` ({CH2CO}-YHIYYRILYGNLGCG-NH2; thioether N-14) gave an IC50 of 4.5 nM.

Regarding `CC[C@H](C)[C@@H]1NC(=O)[C@H](Cc2c[nH]cn2)NC(=O)[C@H](Cc2ccc(O)cc2)NC(=O)CSC[C@@H](C(=O)NCC(N)=O)NC(=O)CNC(=O)[C@H](CC(C)C)NC(=O)[C@H](CO)NC(=O)CNC(=O)[C@H](Cc2ccc(O)cc2)NC(=O)[C@H](CC(C)C)NC(=O)[C@H]([C@@H](C)CC)NC(=O)[C@H](CCCNC(=N)N)NC(=O)[C@H](Cc2ccc(O)cc2)NC(=O)[C@H](Cc2ccc(O)cc2)NC1=O` ({CH2CO}-YHIYYRILYGSLGCG-NH2; thioether N-14), half-maximal inhibition (IC50) was put at 6.3 nM. In the case of `CC[C@H](C)[C@@H]1NC(=O)[C@H](Cc2c[nH]cn2)NC(=O)[C@H](Cc2ccc(O)cc2)NC(=O)CSC[C@@H](C(=O)NCC(N)=O)NC(=O)CNC(=O)[C@H](CC(C)C)NC(=O)[C@H](CCCCN)NC(=O)[C@H](CCC(N)=O)NC(=O)[C@H](Cc2ccc(O)cc2)NC(=O)[C@H]([C@@H](C)CC)NC(=O)[C@H](CCC(N)=O)NC(=O)[C@H](CCCNC(=N)N)NC(=O)[C@H](Cc2ccc(O)cc2)NC(=O)[C@H](Cc2ccc(O)cc2)NC1=O` ({CH2CO}-YHIYYRQIYQKLGCG-NH2; thioether N-14) it was 328 nM.

The compound `CC[C@H](C)[C@@H]1NC(=O)[C@H](Cc2c[nH]cn2)NC(=O)[C@H](Cc2ccc(O)cc2)NC(=O)CSC[C@@H](C(=O)NCC(N)=O)NC(=O)CNC(=O)[C@H](CC(C)C)NC(=O)[C@H](CC(N)=O)NC(=O)CNC(=O)[C@H](Cc2ccc(O)cc2)NC(=O)[C@H](CC(C)C)NC(=O)[C@H](CO)NC(=O)[C@H](CCCNC(=N)N)NC(=O)[C@H](Cc2ccc(O)cc2)NC(=O)[C@H](Cc2ccc(O)cc2)NC1=O` ({CH2CO}-YHIYYRSLYGNLGCG-NH2; thioether N-14) yielded an IC50 of 1.7 nM.

`CC[C@H](C)[C@@H]1NC(=O)[C@H](Cc2c[nH]cn2)NC(=O)[C@H](Cc2ccc(O)cc2)NC(=O)CSC[C@@H](C(=O)NCC(N)=O)NC(=O)CNC(=O)[C@H](CC(C)C)NC(=O)[C@H](CO)NC(=O)CNC(=O)[C@H](Cc2ccc(O)cc2)NC(=O)[C@H](CC(C)C)NC(=O)[C@H](CO)NC(=O)[C@H](CO)NC(=O)[C@H](Cc2ccc(O)cc2)NC(=O)[C@H](Cc2ccc(O)cc2)NC1=O` ({CH2CO}-YHIYYSSLYGSLGCG-NH2; thioether N-14) had a 50% inhibitory concentration (IC50) of 7 nM. Compared with the last compound, the IC50 is about 4.1-fold higher. The value for `CC(C)C[C@@H]1NC(=O)[C@H](CC(N)=O)NC(=O)CNC(=O)[C@H](Cc2ccc(O)cc2)NC(=O)[C@H](CC(C)C)NC(=O)[C@H](CO)NC(=O)[C@H](C)NC(=O)[C@H](Cc2ccc(O)cc2)NC(=O)[C@H](Cc2ccc(O)cc2)NC(=O)[C@H](CC(C)C)NC(=O)[C@H](Cc2c[nH]cn2)NC(=O)[C@H](Cc2ccc(O)cc2)NC(=O)CSC[C@@H](C(=O)NCC(N)=O)NC(=O)CNC1=O` ({CH2CO}-YHLYYASLYGNLGCG-NH2; thioether N-14) was 9.6 nM; that for `CC[C@H](C)[C@@H]1NC(=O)[C@H](CCCNC(=N)N)NC(=O)[C@H](Cc2ccc(O)cc2)NC(=O)[C@H](Cc2ccc(O)cc2)NC(=O)[C@H](CC(C)C)NC(=O)[C@H](Cc2c[nH]cn2)NC(=O)[C@H](Cc2ccc(O)cc2)NC(=O)CSC[C@@H](C(=O)NCC(N)=O)NC(=O)CNC(=O)[C@H](CC(C)C)NC(=O)[C@H](CC(N)=O)NC(=O)CNC(=O)[C@H](Cc2ccc(O)cc2)NC(=O)[C@H](CC(C)C)NC1=O` ({CH2CO}-YHLYYRILYGNLGCG-NH2; thioether N-14) was 11.3 nM. The value for `CC(C)C[C@@H]1NC(=O)[C@H](CC(N)=O)NC(=O)CNC(=O)[C@H](Cc2ccc(O)cc2)NC(=O)[C@H](CC(C)C)NC(=O)[C@H](CC(C)C)NC(=O)[C@H](CCCNC(=N)N)NC(=O)[C@H](Cc2ccc(O)cc2)NC(=O)[C@H](Cc2ccc(O)cc2)NC(=O)[C@H](CC(C)C)NC(=O)[C@H](Cc2c[nH]cn2)NC(=O)[C@H](Cc2ccc(O)cc2)NC(=O)CSC[C@@H](C(=O)NCC(N)=O)NC(=O)CNC1=O` ({CH2CO}-YHLYYRLLYGNLGCG-NH2; thioether N-14) was 48.8 nM; that for `CC(C)C[C@@H]1NC(=O)[C@H](CC(N)=O)NC(=O)CNC(=O)[C@H](Cc2ccc(O)cc2)NC(=O)[C@H](CC(C)C)NC(=O)[C@H](CO)NC(=O)[C@H](C(C)C)NC(=O)[C@H](Cc2ccc(O)cc2)NC(=O)[C@H](Cc2ccc(O)cc2)NC(=O)[C@H](CC(C)C)NC(=O)[C@H](Cc2c[nH]cn2)NC(=O)[C@H](Cc2ccc(O)cc2)NC(=O)CSC[C@@H](C(=O)NCC(N)=O)NC(=O)CNC1=O` ({CH2CO}-YHLYYVSLYGNLGCG-NH2; thioether N-14) was 6.4 nM; that for `CC(C)C[C@@H]1NC(=O)[C@H](CO)NC(=O)CNC(=O)[C@H](Cc2ccc(O)cc2)NC(=O)[C@H](CC(C)C)NC(=O)[C@H](CO)NC(=O)[C@H](C(C)C)NC(=O)[C@H](Cc2ccc(O)cc2)NC(=O)[C@H](Cc2ccc(O)cc2)NC(=O)[C@H](CC(C)C)NC(=O)[C@H](Cc2c[nH]cn2)NC(=O)[C@H](Cc2ccc(O)cc2)NC(=O)CSC[C@@H](C(=O)NCC(N)=O)NC(=O)CNC1=O` ({CH2CO}-YHLYYVSLYGSLGCG-NH2; thioether N-14) was 12 nM. `CC(C)C[C@@H]1NC(=O)[C@H](CC(N)=O)NC(=O)CNC(=O)[C@H](Cc2ccc(O)cc2)NC(=O)[C@H](CC(C)C)NC(=O)[C@H](CO)NC(=O)[C@H](Cc2ccc(O)cc2)NC(=O)[C@H](Cc2ccc(O)cc2)NC(=O)[C@H](Cc2ccc(O)cc2)NC(=O)[C@H](CC(C)C)NC(=O)[C@H](Cc2c[nH]cn2)NC(=O)[C@H](Cc2ccc(O)cc2)NC(=O)CSC[C@@H](C(=O)NCC(N)=O)NC(=O)CNC1=O` ({CH2CO}-YHLYYYSLYGNLGCG-NH2; thioether N-14): the 50% inhibitory concentration (IC50) is 5.5 nM. In the case of `CC[C@H](C)[C@@H]1NC(=O)[C@H](CCCNC(=N)N)NC(=O)[C@H](Cc2ccc(O)cc2)NC(=O)[C@H](Cc2ccc(O)cc2)NC(=O)[C@@H]2CCCN2C(=O)[C@H](Cc2c[nH]cn2)NC(=O)[C@H](Cc2ccc(O)cc2)NC(=O)CSC[C@@H](C(=O)NCC(N)=O)NC(=O)CNC(=O)[C@H](CC(C)C)NC(=O)[C@H](CCC(=O)O)NC(=O)CNC(=O)[C@H](Cc2ccc(O)cc2)NC(=O)[C@H](CC(C)C)NC1=O` ({CH2CO}-YHPYYRILYGELGCG-NH2; thioether N-14) it was above 30000 nM; in that of `CC(C)C[C@@H]1NC(=O)[C@H](CC(N)=O)NC(=O)CNC(=O)[C@H](Cc2ccc(O)cc2)NC(=O)[C@H](CC(C)C)NC(=O)[C@H](CC(C)C)NC(=O)[C@H](CCCNC(=N)N)NC(=O)[C@H](Cc2ccc(O)cc2)NC(=O)[C@H](Cc2ccc(O)cc2)NC(=O)[C@H](CCC(N)=O)NC(=O)[C@H](Cc2c[nH]cn2)NC(=O)[C@H](Cc2ccc(O)cc2)NC(=O)CSC[C@@H](C(=O)NCC(N)=O)NC(=O)CNC1=O` ({CH2CO}-YHQYYRLLYGNLGCG-NH2; thioether N-14), 26.4 nM.

Usually IC50 stands for the point on the concentration scale where inhibition reaches its midpoint. High values mean weaker potency in that assay, low ones greater potency in that assay.
